Results from patent publication US9271978B2 (Zenith Epigenetics Corp., priority 2012, dated 2016).

Key:
[1] = molecular target: T1, Brd4 bromodomain 1 (BRD4(1)) (Homo sapiens, UniProt O60885); experiment: Inhibition of tetra-acetylated histone H4 binding to Brd4 bromodomain 1 (TR-FRET); set-up: key: Active: Compounds with an IC50 value less than 30 μM were deemed to be active.; Not Active: Compounds with an IC50 value less than 30 μM were deemed to be active; conditions: tetra-acetylated histone H4 peptide, active = IC50 <30 μM
T1 construct: Illustrative results with the first bromodomain of Brd4; made in house; host or cells: E. coli BL21 (DE3)
Summary of the method: (§1)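 IC50 values come from dose-response curves of the 665 nm to 620 nm TR-FRET signal decrease, measured after 2 h at room temperature. Reactions contained 200 nM E. coli-expressed His-tagged bromodomain, 25-50 nM biotinylated tetra-acetylated H4 peptide, Eu-streptavidin plus XL665 anti-His antibody, with 30 mM HEPES pH 7.4, 320 mM KF and 0.2% DMSO.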

[2] = molecular target: T2, second bromodomain of Brd2 (BRD2(2)) (Homo sapiens, UniProt P25440); experiment: Inhibition of tetra-acetylated histone H4 binding to Brd2 bromodomain 2 (TR-FRET); set-up: key: Active: Compounds with an IC50 value less than 30 μM were deemed to be active.; Not Active: Compounds with an IC50 value less than 30 μM were deemed to be active; conditions: tetra-acetylated histone H4 peptide, active = IC50 <30 μM
T2 construct: made in house; host or cells: E. coli BL21 (DE3)
T2 sequence (P25440 344-453 limits assumed): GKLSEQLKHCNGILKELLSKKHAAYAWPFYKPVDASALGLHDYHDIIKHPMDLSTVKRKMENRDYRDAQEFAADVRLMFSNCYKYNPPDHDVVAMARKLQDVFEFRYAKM
Summary of the method: as §1

[3] = test system: human AML MV-4-11 (CRL-9591) cells; experiment: Inhibition of cell proliferation in MV4-11 cells; assay type: cell-based; set-up: key: Active: Compounds with an IC50 value less than 30 μM were deemed to be active.; Not Active: Compounds with an IC50 value less than 30 μM were deemed to be active; conditions: human AML MV-4-11 cells, 72 h; active = IC50 <30 μM
Summary of the method: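 IC50 values come from blank-corrected proliferation relative to DMSO controls, read as 490 nm absorbance 3–4 h after CellTiter Aqueous One addition. Before that, cells seeded at 5×10^4/well were exposed for 72 h (37° C, 5% CO2) to triplicate two-fold compound dilutions spanning 30–0.2 μM.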

hIL-6 mRNA = experiment: Inhibition of hIL-6 mRNA transcription in U937 cells; assay type: cell-based, human; set-up: key: Active: Compounds with an IC50 value less than 30 μM were deemed to be active.; Not Active: Compounds with an IC50 value less than 30 μM were deemed to be active; conditions: LPS stimulation, active = IC50 <30 μM
Summary of the method: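 Readout is one-step real-time PCR of hIL-6 mRNA, normalized to an internal control and given as fold induction versus control. Cells: PMA (60 ng/mL, 3 days)-differentiated U937 macrophages, compound added 1 h before 1 ug/mL LPS, harvested after 3 h at 37° C.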

hMCP-1 mRNA = experiment: Inhibition of hMCP-1 mRNA transcription in human peripheral blood mononuclear cells; assay type: cell-based; set-up: key: Active: Compounds with an IC50 value less than 30 μM were deemed to be active.; Not Active: Compounds with an IC50 value less than 30 μM were deemed to be active; conditions: 3 h
Description: In this example, hMCP-1 mRNA in human peripheral blood mononuclear cells was quantitated to measure the transcriptional inhibition of hMCP-1 when treated with a compound of the present disclosure.
Human Peripheral Blood Mononuclear Cells were plated (1.0×10^5 cells per well) in a 96-well plate in 45 μL RPMI-1640 containing 10% FBS and penicillin/streptomycin. The cells were treated with the test compound (45 μL at 2× concentration), and then the cells were incubated at 37° C. for 3 h before the cells were harvested. At time of harvest, cells were transferred to V-bottom plates and centrifuged (800 rpm, 5 min). Spent media was removed and cell lysis solution (70 μL) was added the cells in each well and incubated for 5-10 min at room temperature, to allow for complete cell lysis and detachment. mRNA was then prepared using the “mRNA Catcher PLUS plate” (Invitrogen), according to the protocol supplied. After the last wash, as much wash buffer as possible was aspirated without allowing the wells to dry. Elution buffer (E3, 70 μL) was then added to each well. mRNA was then eluted by incubating the mRNA Catcher PLUS plate with Elution Buffer for 5 min at 68° C. and then immediately placing the plate on ice.
(§2) The eluted mRNA isolated was then used in a one-step quantitative real-time PCR reaction, using components of the Ultra Sense Kit together with Applied Biosystems primer-probe mixes. Real-time PCR data was analyzed, normalizing the Ct values for hMCP-1 to an internal control, prior to determining the fold induction of each unknown sample, relative to the control.

c-myc = experiment: Inhibition of c-myc expression in MV4-11 cells (mRNA, real-time PCR); assay type: cell-based; set-up: key: Active: Compounds with an IC50 value less than 30 μM were deemed to be active.; Not Active: Compounds with an IC50 value less than 30 μM were deemed to be active; conditions: Human AML MV4-11 cells, 3 h incubation
Summary of the method: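 Duplex RT-qPCR of c-myc against cyclophilin cDNA gave IC50 from a dose–response curve. Input was isolated mRNA from 2.5×10^4 MV4-11 cells after 3 h exposure at 37 °C to compound or 0.1% DMSO vehicle.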

hIL-17 mRNA = experiment: Inhibition of hIL-17 mRNA transcription in human peripheral blood mononuclear cells; assay type: cell-based; set-up: key: Active: Compounds with an IC50 value less than 30 μM were deemed to be active.; Not Active: Compounds with an IC50 value less than 30 μM were deemed to be active; conditions: OKT3 antibody stimulation
Description: In this example, hIL-17 mRNA in human peripheral blood mononuclear cells was quantitated to measure the transcriptional inhibition of hIL-17 when treated with a compound of the invention.
Human peripheral blood mononuclear cells were plated (2.0×10^5 cells per well) in a 96-well plate in 45 μL OpTimizer T Cell expansion media containing 20 ng/ml IL-2 and penicillin/streptomycin. The cells were treated with the test compound (45 μL. at 2× concentration), and then the cells were incubated at 37° C. for 1 h before addition of 10× stock OKT3 antibody at 10 ug/ml in media. Cells were incubated at 37° C. for 3 h before the cells were harvested. At time of harvest, cells were centrifuged (800 rpm, 5 min). Spent media was removed and cell lysis solution (70 μL) was added the cells in each well and incubated for 5-10 min at room temperature, to allow for complete cell lysis and detachment. mRNA was then prepared using the “mRNA Catcher PLUS plate” (Invitrogen), according to the protocol supplied. After the last wash, as much wash buffer as possible was aspirated without allowing the wells to dry. Elution buffer (E3, 70 μL) was then added to each well. mRNA was then eluted by incubating the mRNA Catcher PLUS plate with Elution Buffer for 5 min at 68° C. and then immediately placing the plate on ice.
as §2, with “hIL-17” for “hMCP-1”

MM1.s cells = experiment: In vivo efficacy, multiple myeloma xenograft model using MM1.s cells; set-up: species or system mouse; conditions: MM1.s multiple myeloma xenograft in mice, oral 25 to 90 mg/kg b.i.d, tumor growth inhibition
Description: MM1.s cells (ATCC) were grown under standard cell culture conditions and SCID-Beige strain of female mice age 6-7 weeks were injected with 10×10^6 cells/animal in 100 μl PBS+100 μL Matrigel in the lower left abdominal flank. By approximately day 21 after MM1.s cells injection, mice were randomized based on tumor volume (L×W×H)/2) of average ^˜120 mm^3. Mice were dosed orally with compound at 25 to 90 mg/kg b.i.d in EA006 formulation at 10 mL/kg body weight dose volume. Tumor measurements were taken with electronic micro calipers and body weights measured on alternate days beginning from dosing period. The average tumor volumes, percent Tumor Growth Inhibition (TGI) and % change in body weights were compared relative to Vehicle control animals. The means, statistical analysis and the comparison between groups were calculated using Student's t-test in Excel.

Cc1noc(C)c1-c1ccc(=O)n(Cc2ccccc2F)c1 [Example 27, 5-(3,5-Dimethylisoxazol-4-yl)-1-(2-fluorobenzyl)pyridin-2(1H)-one]
FRET activity (IC50 <30 μM) BRD4(1) [1]: Active
FRET activity (IC50 <30 μM) BRD2(2) [2]: Active
Cell Proliferation activity (IC50 <30 μM) [3]: Active
IL-6 activity (IC50 <30 μM) (hIL-6 mRNA): Active
MCP-1 activity (IC50 < 30 μM) (hMCP-1 mRNA): Active

COc1cc(Nc2nn(Cc3ccccc3)c(=O)c3ccccc23)cc(OC)c1OC [Example 171, 2-Benzyl-4-(3,4,5-trimethoxyphenylamino)-2H-phthalazin-1-one]
FRET activity (IC50 <30 μM) BRD4(1) [1]: Active
FRET activity (IC50 <30 μM) BRD2(2) [2]: Active
c-myc activity (IC50 <30 μM) (c-myc): Active
Cell Proliferation activity (IC50 <30 μM) [3]: Active
IL-6 activity (IC50 <30 μM) (hIL-6 mRNA): Active
melting point: 206 to 207 °C

COc1cc(Nc2cn(Cc3ccccc3)c(=O)c3ccccc23)cc(OC)c1OC [Example 172, 2-Benzyl-4-((3,4,5-trimethoxyphenyl)amino)isoquinolin-1(2H)-one]
FRET activity (IC50 <30 μM) BRD4(1) [1]: Active
FRET activity (IC50 <30 μM) BRD2(2) [2]: Active
c-myc activity (IC50 <30 μM) (c-myc): Not Active
Cell Proliferation activity (IC50 <30 μM) [3]: Active
IL-6 activity (IC50 <30 μM) (hIL-6 mRNA): Active
melting point: 162 to 164 °C

Cc1noc(C)c1-c1cc(N)c(=O)n(Cc2cccc3[nH]ccc23)c1 [Example 247, 1-((1H-Indol-4-yl)methyl)-3-amino-5-(3,5-dimethylisoxazol-4-yl)pyridin-2(1H)-one]
FRET activity (IC50 <30 μM) BRD4(1) [1]: Active
c-myc activity (IC50 <30 μM) (c-myc): Active
Cell Proliferation activity (IC50 <30 μM) [3]: Active
IL-6 activity (IC50 <30 μM) (hIL-6 mRNA): Active
IL-17 activity (IC50 < 30 μM) (hIL-17 mRNA): Active

COc1cc(-c2cn(Cc3ccccc3)c(=O)c3ccccc23)ccc1O [Example 169, 2-Benzyl-4-(4-hydroxy-3-methoxyphenyl)isoquinolin-1(2H)-one]
FRET activity (IC50 <30 μM) BRD4(1) [1]: Active
FRET activity (IC50 <30 μM) BRD2(2) [2]: Active
c-myc activity (IC50 <30 μM) (c-myc): Active
Cell Proliferation activity (IC50 <30 μM) [3]: Active
IL-6 activity (IC50 <30 μM) (hIL-6 mRNA): Active
melting point: 165 to 167 °C

COc1cc(-c2cn(Cc3ccccc3)c(=O)c3ccccc23)cc(OC)c1OC [Example 168, 2-Benzyl-4-(3,4,5-trimethoxyphenyl)isoquinolin-1(2H)-one]
FRET activity (IC50 <30 μM) BRD4(1) [1]: Not Active
FRET activity (IC50 <30 μM) BRD2(2) [2]: Active
c-myc activity (IC50 <30 μM) (c-myc): Not Active
Cell Proliferation activity (IC50 <30 μM) [3]: Active
IL-6 activity (IC50 <30 μM) (hIL-6 mRNA): Not Active
melting point: 166 to 168 °C

Cc1noc(C)c1-c1cc(N)c(=O)n(Cc2ccc(Cl)cc2)c1 [Example 152, 3-Amino-1-(4-chlorobenzyl)-5-(3,5-dimethylisoxazol-4-yl)pyridin-2(1H)-one]
FRET activity (IC50 <30 μM) BRD4(1) [1]: Active
In vivo activity (MM1.s cells): Active

Cc1noc(C)c1-c1cc(N)c(=O)n(Cc2cccc3[nH]cc(C)c23)c1 [Example 271, 3-Amino-5-(3,5-dimethylisoxazol-4-yl)-1-((3-methyl-1H-indol-4-yl)methyl)pyridin-2(1H)-one]
FRET activity (IC50 <30 μM) BRD4(1) [1]: Active
c-myc activity (IC50 <30 μM) (c-myc): Active
Cell Proliferation activity (IC50 <30 μM) [3]: Active
IL-6 activity (IC50 <30 μM) (hIL-6 mRNA): Active
IL-17 activity (IC50 < 30 μM) (hIL-17 mRNA): Active

COc1cc(-c2nn(Cc3ccccc3)c(=O)c3ccccc23)ccc1O [Example 165, 2-Benzyl-4-(4-hydroxy-3-methoxyphenyl)-2H-phthalazin-1-one]
FRET activity (IC50 <30 μM) BRD4(1) [1]: Active
FRET activity (IC50 <30 μM) BRD2(2) [2]: Active
c-myc activity (IC50 <30 μM) (c-myc): Active
Cell Proliferation activity (IC50 <30 μM) [3]: Active
IL-6 activity (IC50 <30 μM) (hIL-6 mRNA): Active
melting point: 197 to 200 °C

Cc1noc(C)c1-c1cn(Cc2ccccc2)c(=O)c2ccccc12 [Example 167, 2-Benzyl-4-(3,5-dimethylisoxazol-4-yl)isoquinolin-1(2H)-one]
FRET activity (IC50 <30 μM) BRD4(1) [1]: Active
FRET activity (IC50 <30 μM) BRD2(2) [2]: Active
c-myc activity (IC50 <30 μM) (c-myc): Not Active
Cell Proliferation activity (IC50 <30 μM) [3]: Active
IL-6 activity (IC50 <30 μM) (hIL-6 mRNA): Active
melting point: 139 to 141 °C
